Among the data in patent publication US12275734B1, “Pleuromutilin onium salt derivative containing a 3H-imidazo[4,5-c]pyridine side chain, and a preparation method and application thereof” (SHAANXI UNIVERSITY OF SCIENCE AND TECHNOLOGY, priority 2024, dated 2025) are MIC values, retold here.

SMILES strings stand for the structures.

Assay in all cases: MIC, broth microdilution
Holding throughout (format): cell-based

In one experiment the test system is E. coli ATCC 25922. Conditions: Escherichia coli, ATCC25922; E. coli ATCC 25922; read-out: Minimum inhibitory concentration E.c.^h. On the procedure: (§1) The minimum inhibitory concentration of 3H-imidazo[4,5-C]pyridine pleuromutilin onium salt derivatives against the tested pathogenic microorganisms were determined by broth microdilution method, with valnemulin and retapamulin as positive controls.
(§2) The experimental strains included resistant Gram-positive bacteria: Methicillin-resistant S. aureus ATCC 33591; Methicillin-resistant S. aureus ATCC 43300; S. aureus ATCC 29213; Methicillin-resistant S. epidermidis ATCC 51625. Resistant Gram-negative bacteria: A. baumannii ATCC 19606; S. enterica ATCC14028; E. coli ATCC 25922; E. coli CMCC 44103. 9 clinically isolated resistant strains: MRSA-171; MRSA-575; MRSA-206; MRSA-222; MRSA-596; VRE-80; MDR-PA-126; MDR-KP-893; CR-AB-882.
(§3) (1) Preparation of MHB medium: Weigh 18.0 g of MHB medium pre-made powder, add it to 1 L of distilled water, heat and boil until completely dissolved, divide it into conical bottles, sterilize it by high pressure at 121° C. for 15 minutes, and set aside.
(§4) (2) Cultivate the experimental strain to the logarithmic growth phase: Under sterile conditions, inoculate the experimental strain into fresh MHB medium and culture it in a 37° C. constant temperature and humidity incubator for 16-24 hours. Adjust the bacterial solution concentration to 1.5×10^8 CFU/mL and then dilute it 200 times for later use.
(§5) (3) Preparation of storage solution: Weigh the sample to be tested, dissolve it in 1% DMSO solution, and prepare a storage solution with a concentration of 2560 μg/mL; weigh the positive control, dissolve it in sterile distilled water, and prepare a storage solution with a concentration of 2560 μg/mL.
(§6) (4) Preparation of bacterial suspension: Under sterile conditions, the experimental strain cultured to the logarithmic growth phase was calibrated to a 0.5 McFarland unit turbidity standard using MHB medium and then diluted at a ratio of 1:200 to prepare a bacterial suspension with a concentration of 5×10^5 CFU/mL for later use.
(§7) (5) Determination of MIC by two-fold microdilution method: Take a sterile 96-well plate, add 10 μL of the test compound at a concentration of 2560 μg/mL, and perform serial dilutions by the two-fold dilution method. At the same time, set up a negative control group without drug. Then add 190 μL of diluted bacterial solution to each well, so that the final bacterial solution concentration in each well is 5×10^5 CFU/mL, and incubate in a 37° C. constant temperature and humidity chamber for 24 hours.

For experiment [1], the system named is Methicillin-resistant S. aureus ATCC 33591. The following applies: Staphylococcus aureus, ATCC 33591 / MRSA; Methicillin-resistant S. aureus ATCC 33591; read-out: Minimum inhibitory concentration MRSA^b. On the procedure: as §1, §2, §3, §4, §5, §6, §7
For the next experiment, the system named is A. baumannii ATCC 19606. The following applies: Acinetobacter baumannii, ATCC19606; A. baumannii ATCC 19606; read-out: Minimum inhibitory concentration A.b.^f. Here is the method: as §1, §2, §3, §4, §5, §6, §7
Another experiment has as its system S. enterica ATCC14028. Conditions: Salmonella enterica; S. enterica ATCC14028; read-out: Minimum inhibitory concentration S.e.^g. On the procedure: as §1, §2, §3, §4, §5, §6, §7
Experiment [2] relates to Methicillin-resistant S. aureus ATCC 43300. The following applies: Staphylococcus aureus, ATCC 43300 / MRSA; Methicillin-resistant S. aureus ATCC 43300; read-out: Minimum inhibitory concentration MRSA^c. On the procedure: as §1, §2, §3, §4, §5, §6, §7
A further experiment relates to S. aureus ATCC 29213. The following applies: Staphylococcus aureus, ATCC29213; S. aureus ATCC 29213; read-out: Minimum inhibitory concentration S.a.^d. Here is the method: as §1, §2, §3, §4, §5, §6, §7
The next experiment deals with E.coli CMCC 44103. Conditions: Escherichia coli, CMCC44103; E.coli CMCC 44103; read-out: Minimum inhibitory concentration E.c.^i. Here is the method: as §1, §2, §3, §4, §5, §6, §7
The test system of experiment [3] is Methicillin-resistant S. epidermidis ATCC 51625. Conditions: Staphylococcus epidermidis, ATCC 51625 / MRSE; Methicillin-resistant S. epidermidis ATCC 51625; read-out: Minimum inhibitory concentration MRSE^e. On the procedure: as §1, §2, §3, §4, §5, §6, §7

Regarding `C=C[C@]1(C)C[C@@H](OC(=O)CSc2nc3cc[n+](Cc4ccc(Br)cc4)cc3[nH]2)[C@]2(C)[C@H](C)CC[C@]3(CCC(=O)[C@H]32)[C@@H](C)[C@@H]1O` [Compound a, 5-(4-bromobenzyl)-2-((2-(((3aR,4R,5R,7S,8S,9R,9aS,12R)-8-hydroxy-4,7,9,12-tetramethyl-3-oxo-7-vinyldecahydro-4,9a-propancyclopenta[8]cyclo-5-yl)oxy)-2-oxoethyl)thio)-3H-imidazo[4,5-c]pyridin-5-ium], the MIC in the experiment on E. coli ATCC 25922 was 16 µg/mL; in experiment [1] it was 8 µg/mL; in the experiment with A. baumannii ATCC 19606 it was 32 µg/mL; with S. enterica ATCC14028, 4 µg/mL; in experiment [2], 4 µg/mL; in the experiment on S. aureus ATCC 29213, 8 µg/mL. Moreover, the MIC in the experiment on E.coli CMCC 44103 came to 8 µg/mL; in experiment [3], 16 µg/mL.
With `C=C[C@]1(C)C[C@@H](OC(=O)CSc2nc3cc[n+](Cc4ccc(C(F)(F)F)cc4)cc3[nH]2)[C@]2(C)[C@H](C)CC[C@]3(CCC(=O)[C@H]32)[C@@H](C)[C@@H]1O` [Compound b, 5-(4-trifluoromethyl)-2-((2-(((3aR,4R,5R,7S,8S,9R,9aS,12R)-8-hydroxy-4,7,9,12-tetramethyl-3-oxo-7-vinyldecahydro-4,9a-propancyclopenta[8]cyclo-5-yl)oxy)-2-oxoethyl)thio)-3H-imidazo[4,5-C]pyridine-5-ium], the MIC in the experiment with E. coli ATCC 25922 turned out to be 32 µg/mL; in experiment [1] it was 32 µg/mL; in the experiment on A. baumannii ATCC 19606, 64 µg/mL; in the experiment with S. enterica ATCC14028, 16 µg/mL; in experiment [2], 64 µg/mL; with S. aureus ATCC 29213, 64 µg/mL. In addition, the MIC in the experiment with E.coli CMCC 44103 is 16 µg/mL; in experiment [3], 32 µg/mL.
Take `C=C[C@]1(C)C[C@@H](OC(=O)CSc2nc3cc[n+](Cc4ccc(F)cc4)cc3[nH]2)[C@]2(C)[C@H](C)CC[C@]3(CCC(=O)[C@H]32)[C@@H](C)[C@@H]1O` [Compound c, 5-(4-fluorobenzyl)-2-((2-(((3aR,4R,5R,7S,8S,9R,9aS,12R)-8-hydroxy-4,7,9,12-tetramethyl-3-oxo-7-vinyldecahydro-4,9a-propancyclopenta[8]cyclo-5-yl)oxy)-2-oxoethyl)thio)-3H-imidazo[4,5-C]pyridine-5-ium]: the MIC in the experiment on E. coli ATCC 25922 stood at 8 µg/mL; in experiment [1] it was 8 µg/mL; with A. baumannii ATCC 19606, 32 µg/mL; in the experiment on S. enterica ATCC14028 it was 16 µg/mL; in experiment [2], 16 µg/mL; in the experiment on S. aureus ATCC 29213 it was 4 µg/mL. Also, the MIC worked out at 8 µg/mL with E.coli CMCC 44103 and 16 µg/mL in experiment [3].
As for `C=C[C@]1(C)C[C@@H](OC(=O)CSc2nc3cc[n+](Cc4ccc(OC)cc4)cc3[nH]2)[C@]2(C)[C@H](C)CC[C@]3(CCC(=O)[C@H]32)[C@@H](C)[C@@H]1O` [Compound d, 5-(4-methoxybenzyl)-2-((2-(((3aR,4R,5R,7S,8S,9R,9aS,12R)-8-hydroxy-4,7,9,12-tetramethyl-3-oxo-7-vinyldecahydro-4,9a-propancyclopenta[8]cyclo-5-yl)oxy)-2-oxoethyl)thio)-3H-imidazo[4,5-C]pyridine-5-ium], the MIC in the experiment with E. coli ATCC 25922 came to 4 µg/mL; in experiment [1], 16 µg/mL; in the experiment with A. baumannii ATCC 19606, 16 µg/mL; in the experiment with S. enterica ATCC14028, 16 µg/mL; in experiment [2] it was 8 µg/mL; in the experiment with S. aureus ATCC 29213, 32 µg/mL. Further, the values for the MIC (in the experiment on E.coli CMCC 44103; in experiment [3]) were 32 µg/mL and 16 µg/mL, respectively.
As for `C=C[C@]1(C)C[C@@H](OC(=O)CSc2nc3cc[n+](Cc4ccc(Cl)cc4)cc3[nH]2)[C@]2(C)[C@H](C)CC[C@]3(CCC(=O)[C@H]32)[C@@H](C)[C@@H]1O` [Compound e, 5-(4-chlorobenzyl)-2-((2-(((3aR,4R,5R,7S,8S,9R,9aS,12R)-8-hydroxy-4,7,9,12-tetramethyl-3-oxo-7-vinyldecahydro-4,9a-propancyclopenta[8]cyclo-5-yl)oxy)-2-oxoethyl)thio)-3H-imidazo[4,5-C]pyridine-5-ium], the MIC with E. coli ATCC 25922 was determined as 32 µg/mL; in experiment [1], 32 µg/mL; in the experiment on A. baumannii ATCC 19606 it was 16 µg/mL; in the experiment on S. enterica ATCC14028, 32 µg/mL; in experiment [2], 16 µg/mL; in the experiment on S. aureus ATCC 29213 it was 8 µg/mL. Further, the MIC (with E.coli CMCC 44103; in experiment [3]) was 16 µg/mL throughout.
Turning to `C=C[C@]1(C)C[C@@H](OC(=O)CSc2nc3cc[n+](Cc4ccc([N+](=O)[O-])cc4)cc3[nH]2)[C@]2(C)[C@H](C)CC[C@]3(CCC(=O)[C@H]32)[C@@H](C)[C@@H]1O` [Compound f, 5-(4-nitrobenzyl)-2-((2-(((3aR,4R,5R,7S,8S,9R,9aS,12R)-8-hydroxy-4,7,9,12-tetramethyl-3-oxo-7-vinyldecahydro-4,9a-propancyclopenta[8]cyclo-5-yl)oxy)-2-oxoethyl)thio)-3H-imidazo[4,5-C]pyridine-5-ium], the MIC in the experiment with E. coli ATCC 25922 worked out at 16 µg/mL; in experiment [1], 8 µg/mL; in the experiment with A. baumannii ATCC 19606 it was 8 µg/mL; in the experiment with S. enterica ATCC14028, 4 µg/mL; in experiment [2] it was 2 µg/mL; in the experiment with S. aureus ATCC 29213, 4 µg/mL. For the same compound, the MIC turned out to be 8 µg/mL in the experiment on E.coli CMCC 44103 and 4 µg/mL in experiment [3].
Take `C=C[C@]1(C)C[C@@H](OC(=O)CSc2nc3cc[n+](Cc4cc(F)c(F)cc4F)cc3[nH]2)[C@]2(C)[C@H](C)CC[C@]3(CCC(=O)[C@H]32)[C@@H](C)[C@@H]1O` [Compound g, 5-(2,4,5-trifluorobenzyl)-2-((2-(((3aR,4R,5R,7S,8S,9R,9aS,12R)-8-hydroxy-4,7,9,12-tetramethyl-3-oxo-7-vinyldecahydro-4,9a-propancyclopenta[8]cyclo-5-yl)oxy)-2-oxoethyl)thio)-3H-imidazo[4,5-C]pyridine-5-ium]: the MIC stood at 64 µg/mL with E. coli ATCC 25922; 128 µg/mL in experiment [1]; 64 µg/mL in the experiment with A. baumannii ATCC 19606; 128 µg/mL in the experiment on S. enterica ATCC14028; 64 µg/mL in experiment [2]; 64 µg/mL with S. aureus ATCC 29213. The results for the MIC (with E.coli CMCC 44103; in experiment [3]) were 128 µg/mL and 64 µg/mL, respectively.
Regarding `C=C[C@]1(C)C[C@@H](OC(=O)CSc2nc3cc[n+](Cc4ccc(-c5ccccc5)cc4)cc3[nH]2)[C@]2(C)[C@H](C)CC[C@]3(CCC(=O)[C@H]32)[C@@H](C)[C@@H]1O` [Compound j, 5-([1,1′-biphenyl]-4-ylmethyl)-2-((2-(((3aR,4R,5R,7S,8S,9R,9aS,12R)-8-hydroxy-4,7,9,12-tetramethyl-3-oxo-7-vinyldecahydro-4,9a-propancyclopenta[8]cyclo-5-yl)oxy)-2-oxoethyl)thio)-3H-imidazo[4,5-C]pyridine-5-ium], the MIC was found to be 64 µg/mL with E. coli ATCC 25922; 32 µg/mL in experiment [1]; 16 µg/mL in the experiment on A. baumannii ATCC 19606; 8 µg/mL in the experiment with S. enterica ATCC14028; 16 µg/mL in experiment [2]; 4 µg/mL with S. aureus ATCC 29213. The MIC was 8 µg/mL in the experiment with E.coli CMCC 44103 and 32 µg/mL in experiment [3].
`C=C[C@]1(C)C[C@@H](OC(=O)CSc2nc3cc[n+](Cc4ccc(C(C)(C)C)cc4)cc3[nH]2)[C@]2(C)[C@H](C)CC[C@]3(CCC(=O)[C@H]32)[C@@H](C)[C@@H]1O` [Compound k, 5-(4-(tert-butyl)benzyl)-2-((2-(((3aR,4R,5R,7S,8S,9R,9aS,12R)-8-hydroxy-4,7,9,12-tetramethyl-3-oxo-7-vinyldecahydro-4,9a-propancyclopenta[8]cyclo-5-yl)oxy)-2-oxoethyl)thio)-3H-imidazo[4,5-C]pyridine-5-ium]: the MIC was 32 µg/mL with E. coli ATCC 25922; 8 µg/mL in experiment [1]; 16 µg/mL in the experiment on A. baumannii ATCC 19606; 32 µg/mL in the experiment on S. enterica ATCC14028; 32 µg/mL in experiment [2]; 16 µg/mL with S. aureus ATCC 29213. The MIC in the experiment with E.coli CMCC 44103 was 32 µg/mL; in experiment [3], 8 µg/mL.
